Laboratory results taken from the NIST ThermoML archive (doi:10.1021/je049585t).

Test: molar heat capacity at constant pressure
Details: 101.33 kPa, Crystal

CC1=CCC2C(=O)OC(=O)C2C1 (configuration not stated) [4-methyl-cyclohex-4-ene-1, 2-dicarboxylic acid anhydride]
Details	molar heat capacity at constant pressure [J/K/mol]
80 K	65.23
80.45 K	63.17
81.95 K	63.26
83.53 K	63.39
85 K	64.37
85.17 K	63.65
86.78 K	64.05
88.38 K	64.45
89.95 K	65.12
90 K	64.76
91.5 K	65.63
93.03 K	66.26
94.54 K	66.83
95 K	66.05
96.03 K	67.49
97.51 K	68.15
98.97 K	68.87
100 K	67.97
100.41 K	69.38
101.84 K	69.93
103.26 K	70.47
104.66 K	71.22
105 K	70.28
106.05 K	71.84
107.43 K	72.36
108.8 K	72.92
110 K	72.81
110.15 K	73.65
111.5 K	74.07
112.83 K	74.66
114.15 K	75.18
115 K	75.44
115.47 K	75.87
116.77 K	76.33
118.07 K	76.91
119.35 K	77.54
120 K	78.06
120.63 K	78.18
121.9 K	78.77
123.16 K	79.3
124.42 K	79.75
125 K	80.62
125.66 K	80.33
126.9 K	80.87
128.14 K	81.35
129.36 K	81.93
130 K	83.08
130.58 K	82.44
131.83 K	82.95
132.96 K	83.78
134.16 K	84.15
135 K	85.43
135.38 K	84.59
136.59 K	85.28
137.72 K	85.94
138.93 K	86.2
140 K	87.67
140.14 K	86.69
141.27 K	86.97
142.48 K	87.65
143.6 K	88.22
144.72 K	88.9
145 K	89.84
145.85 K	89.28
146.98 K	89.92
148.1 K	90.42
149.22 K	90.83
150 K	91.95
150.43 K	91.65
151.55 K	91.97
153.01 K	92.74
154.67 K	93.61
155 K	94.06
156.32 K	94.64
158.04 K	95.26
159.69 K	95.96
160 K	96.19
161.35 K	96.78
162.97 K	97.8
164.62 K	98.83
165 K	98.39
166.25 K	99.65
167.8 K	100.5
169.46 K	101.34
170 K	100.7
171.37 K	102.49
173.61 K	103.54
175 K	103.17
175.85 K	104.8
178.12 K	106.11
180 K	105.81
180.28 K	107.31
182.43 K	108.56
184.61 K	109.77
185 K	108.67
186.68 K	111.17
188.84 K	112.46
190 K	111.75
190.92 K	113.85
192.99 K	115.1
195 K	115.07
195.07 K	116.42
197.13 K	117.72
199.15 K	118.98
200 K	118.62
201.22 K	120.78
203.2 K	121.75
